Values belong to the compound of their own block, whether it stands above or below them.
Experiments:
[1] = test system: theophylline aptamer (RNA, aptamer) GGUGAUACCAGCAUCGUCUUGAUGCCCUUGGCAGCACC; test: fluorescence change of staining dye; conditions: 140 mM NaCl, 5 mM KCl, 5 mM MgCl2, 20 mM Tris-Cl pH 7.5, 25 °C, aptamer 10 nM
[2] = test system: ATP aptamer (DNA, aptamer) ATAGCGGAGGAAGGATACCTGGGGGAGTATAT; test: fluorescence change of staining dye; conditions: 300 mM NaCl, 5 mM MgCl2, 10 mM KCl, 20 mM Tris-Cl pH 7.5, 25 °C, Hoechst 33258 25 nM as indicator, aptamer 10 nM
[3] = test system: thrombin-binding aptamer (TBA) (DNA, G4) GGTTGGTGTGGTTGG; test: fluorescence of dye-aptamer complex; conditions: 300 mM NaCl, 5 mM MgCl2, 10 mM KCl; 20 mM Tris-Cl pH 7.5, 25 °C; dye 25 nM, aptamer 10 nM
[4] = test system: theophylline aptamer (RNA, aptamer) GGUGAUACCAGCAUCGUCUUGAUGCCCUUGGCAGCACC; test: fluorescence of dye-aptamer complex; conditions: 140 mM NaCl, 5 mM KCl, 5 mM MgCl2; 20 mM Tris-Cl pH 7.5, 25 °C; dye 25 nM, aptamer 10 nM
[5] = test system: ATP aptamer (DNA, aptamer) ATAGCGGAGGAAGGATACCTGGGGGAGTATAT; test: fluorescence of dye-aptamer complex; conditions: 300 mM NaCl, 5 mM MgCl2, 10 mM KCl; 20 mM Tris-Cl pH 7.5, 25 °C; dye 25 nM, aptamer 10 nM

binding [3]: yes
binding [4]: yes
Structure (SMILES): CCCN(CCCN(C)C)c1cc(C=C2Sc3ccccc3N2C)c2ccccc2[n+]1-c1ccccc1

binding [3]: yes
binding [5]: yes
Structure (SMILES): C[n+]1c(C=C2C=CN(CCC[N+](C)(C)CCC[N+](C)(C)CCCN3C=CC(=Cc4oc5ccccc5[n+]4C)c4ccccc43)c3ccccc32)oc2ccccc21

binding [3]: yes
binding [4]: yes
Structure (SMILES): CN1C(=Cc2cc[n+](C)c3ccccc23)Sc2ccccc21

Further lines, the compound ahead of its results:

Structure (SMILES): Cn1c(=O)c2[nH]cnc2n(C)c1=O
binding ([1]; TO or SYBR Green 25 nM as indicator): yes

Structure (SMILES): Nc1ncnc2c1ncn2[C@@H]1O[C@H](COP(=O)(O)OP(=O)(O)OP(=O)(O)O)[C@@H](O)[C@H]1O
binding [2]: yes

Structure (SMILES): Nc1nc2c(ncn2[C@@H]2O[C@H](COP(=O)(O)OP(=O)(O)OP(=O)(O)O)[C@@H](O)[C@H]2O)c(=O)[nH]1
binding ([2]; ~5% change, within error): no

Structure (SMILES): Cn1c(=O)c2c(ncn2C)n(C)c1=O
binding ([1]; TO 25 nM as indicator, huge excess of caffeine): no

Structure (SMILES): CN1CCN(c2ccc3nc(-c4ccc5nc(-c6ccc(O)cc6)[nH]c5c4)[nH]c3c2)CC1
binding [5]: yes

From paper PMC3474971 (2012)
